From patent US6894003B2, “Enhancement of the activity of carotenoid biosynthesis inhibitor herbicides” (BASF Aktiengesellschaft, priority 2000, dated 2005)

Tests used:
Assay type in all cases: in vivo
Papaver rhoeas = assay: Greenhouse pre-emergence weed control, poppy; conditions: vs untreated check
Source text: (§1) Seeds of the monocotyledonous and dicotyledonous test plants are separately mixed with potting soil and planted on top of approximately one inch of soil in separate pint cups. After planting, the cups are subjected to the following treatments:
(§2) Technical TTP (treatment H) is applied as a dispersion in acetone using a single-nozzle overhead track pneumatic sprayer, while granular or powder formulations (treatments I-K) are applied by shaking the solid granules or powder directly and evenly onto the soil surface.
(§3) The treated cups are then placed on greenhouse benches, watered and cared for in accordance with conventional greenhouse procedures. Twenty days after treatment (DAT), the seedling plants are examined, and the % weed control as compared to untreated check is recorded (Table I).

Veronica persica = assay: Greenhouse pre-emergence weed control, Veronica; conditions: vs untreated check
Source text: as §1, §2, §3

Lolium perenne = assay: Greenhouse pre-emergence weed control, ryegrass; conditions: vs untreated check
Source text: as §1, §2, §3

Galium aparine = assay: Greenhouse pre-emergence weed control, Galium; conditions: for Weed Control (20 DAT) GALAP: vs untreated check
Source text: as §1, §2, §3

[1] = tested on: Hordeum vulgare (variety Mammut); assay: Crop phytotoxicity, winter barley (variety Mammut); conditions: assessed visually
Source text: as §1, §2
The treated cups are then placed on greenhouse benches, watered and cared for in accordance with conventional greenhouse procedures. […]

[2] = tested on: Triticum aestivum (variety Kanzler); assay: Crop phytotoxicity, winter wheat (variety Kanzler); conditions: assessed visually
Source text: as §1, §2, §3

Setaria viridis = assay: Greenhouse pre-emergence weed control, green foxtail; conditions: vs untreated check
Source text: as §1, §2, §3

Alopecurus myosuroides = assay: Greenhouse pre-emergence weed control, blackgrass; conditions: for Weed Control (20 DAT) ALOMY: vs untreated check
Source text: as §1, §2, §3

[3] = tested on: Matricaria inodora vulgare; assay: Greenhouse pre-emergence weed control, Matricaria; conditions: vs untreated check
Source text: as §1, §2, §3

Q: Which results are given for `FC(F)(F)c1ccc(-c2nccc(Oc3cccc(C(F)(F)F)c3)n2)cc1` [H, 4-(3-trifluoromethylphenoxy)-2-(4-trifluoromethylphenyl)-pyrimidine]?
A: Weed Control (20 DAT) PAPRH (Papaver rhoeas; 0.060 kg/ha): 99.5%; Weed Control (20 DAT) PAPRH (Papaver rhoeas; 0.120 kg/ha): 99.5%; Weed Control (20 DAT) PAPRH (Papaver rhoeas; 0.240 kg/ha): 100.0%; Weed Control (20 DAT) PAPRH (Papaver rhoeas; 0.480 kg/ha): 100.0%; Weed Control (20 DAT) VERPE (Veronica persica; 0.060 kg/ha): 99.5%; Weed Control (20 DAT) VERPE (Veronica persica; 0.120 kg/ha): 100.0%; Weed Control (20 DAT) VERPE (Veronica persica; 0.240 kg/ha): 100.0%; Weed Control (20 DAT) VERPE (Veronica persica; 0.480 kg/ha): 100.0%; Weed Control (20 DAT) LOLPE (Lolium perenne; 0.060 kg/ha): 91.5%; Weed Control (20 DAT) LOLPE (Lolium perenne; 0.120 kg/ha): 98.5%; Weed Control (20 DAT) LOLPE (Lolium perenne; 0.240 kg/ha): 99.0%; Weed Control (20 DAT) LOLPE (Lolium perenne; 0.480 kg/ha): 99.0%; Weed Control (20 DAT) GALAP (Galium aparine; 0.060 kg/ha): 67.5%; Weed Control (20 DAT) GALAP (Galium aparine; 0.120 kg/ha): 72.5%; Weed Control (20 DAT) GALAP (Galium aparine; 0.240 kg/ha): 98.0%; Weed Control (20 DAT) GALAP (Galium aparine; 0.480 kg/ha): 98.0%; Rate required to control Galium (Galium aparine; greenhouse): 240 g/ha; Crop Phytotoxicity 11 DAT HORVWM ([1]; 0.060 kg/ha): 20.0; Crop Phytotoxicity 20 DAT HORVWM ([1]; 0.060 kg/ha): 15.0; Crop Phytotoxicity 11 DAT HORVWM ([1]; 0.120 kg/ha): 40.0; Crop Phytotoxicity 20 DAT HORVWM ([1]; 0.120 kg/ha): 25.0; Crop Phytotoxicity 11 DAT HORVWM ([1]; 0.240 kg/ha): 42.5; Crop Phytotoxicity 20 DAT HORVWM ([1]; 0.240 kg/ha): 40.0; Crop Phytotoxicity 11 DAT HORVWM ([1]; 0.480 kg/ha): 47.5; Crop Phytotoxicity 20 DAT HORVWM ([1]; 0.480 kg/ha): 45.0; Crop Phytotoxicity 11 DAT TRZAWK ([2]; 0.060 kg/ha): 1.0; Crop Phytotoxicity 20 DAT TRZAWK ([2]; 0.060 kg/ha): 0.5; Crop Phytotoxicity 11 DAT TRZAWK ([2]; 0.120 kg/ha): 2.5; Crop Phytotoxicity 20 DAT TRZAWK ([2]; 0.120 kg/ha): 1.0; Crop Phytotoxicity 11 DAT TRZAWK ([2]; 0.240 kg/ha): 6.5; Crop Phytotoxicity 20 DAT TRZAWK ([2]; 0.240 kg/ha): 4.5; Crop Phytotoxicity 11 DAT TRZAWK ([2]; 0.480 kg/ha): 14.0; Crop Phytotoxicity 20 DAT TRZAWK ([2]; 0.480 kg/ha): 10.0; Weed Control (20 DAT) SETVI (Setaria viridis; 0.060 kg/ha): 96.5%; Weed Control (20 DAT) SETVI (Setaria viridis; 0.120 kg/ha): 100.0%; Weed Control (20 DAT) SETVI (Setaria viridis; 0.240 kg/ha): 100.0%; Weed Control (20 DAT) SETVI (Setaria viridis; 0.480 kg/ha): 100.0%; Weed Control (20 DAT) ALOMY (Alopecurus myosuroides; 0.060 kg/ha): 22.5%; Weed Control (20 DAT) ALOMY (Alopecurus myosuroides; 0.120 kg/ha): 77.5%; Weed Control (20 DAT) ALOMY (Alopecurus myosuroides; 0.240 kg/ha): 98.5%; Weed Control (20 DAT) ALOMY (Alopecurus myosuroides; 0.480 kg/ha): 99.0%; Rate required to control Alopecurus (Alopecurus myosuroides; greenhouse): 240 g/ha; Weed Control (20 DAT) MATIN ([3]; 0.060 kg/ha): 98.5%; Weed Control (20 DAT) MATIN ([3]; 0.120 kg/ha): 99.0%; Weed Control (20 DAT) MATIN ([3]; 0.240 kg/ha): 99.0%; Weed Control (20 DAT) MATIN ([3]; 0.480 kg/ha): 100.0%
